Literature values in patent US9681659B2, “Agrochemical formulation comprising encapsulated pesticide” (BASF SE, priority 2011, dated 2017).
In brackets after ≈: the same amount, converted by molar mass.

| SMILES | solubility values (in water) (all data at 20° C., examples for aprotic, polar solvent B) | solubilities in water (in water, examples for pesticide A) |
| --- | --- | --- |
| CC1=CC(=O)CC(C)(C)C1 [isoporone] | 15 mg/mL (≈ 109 mM) | – |
| COc1cc(C)c(C(=O)c2c(OC)ccc(Br)c2C)c(OC)c1OC [metrafenon] | – | 0.5 mg/L |
